Reference: US9067934B2, “Bicyclic pyridinones” (Pfizer Inc., priority 2011, dated 2015)
Counter-ions that a name gives are not always drawn.

Tested on: production of amyloid beta protein Aβ(1-42) (γ-secretase) in human WT-APP overexpressing CHO cells
Experiment: Cell-Based γ-Secretase Assay with ELISA Readout
Settings: human WT-APP overexpressing CHO cells, ~24 hours at 37° C., Aβ(1-42) ELISA; footnotes: a = geometric mean of >15 determinations, b = single determination, c = geometric mean of 7-15 determinations; read-out: Aβ 42B IC50 (Geometric Mean of 2-6 Determinations)
In short: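 Human WT-APP-overexpressing CHO cells were pre-cultured 24 h at 37° C, then exposed to compounds (eleven-point half-log series, 1% final DMSO) for ~24 h. Aβ(1-42) in conditioned media was captured with Aβ(1-42)-specific antibody and detected with Eu-labeled 6e10 by DELFIA TRF. IC50 by nonlinear regression against min/max inhibition controls.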

Structure (SMILES) | IC50 [nM]
Cc1cn(-c2ccc3n(c2=O)CCN(CCOc2ccccc2-c2csc(C)n2)C3=O)cn1 [Example 36, 7-(4-methyl-1H-imidazol-1-yl)-2-{2-[2-(2-methyl-1,3-thiazol-4-yl)phenoxy]ethyl}-3,4-dihydro-2H-pyrido[1,2-a]pyrazine-1,6-dione, trifluoroacetate salt] | 302
Cc1cn(-c2ccc3n(c2=O)CCN(CCOc2cc(Cl)cc(Cl)c2Cl)C3=O)cn1 [Example 10, 7-(4-methyl-1H-imidazol-1-yl)-2-[2-(2,3,5-trichlorophenoxy)ethyl]-3,4-dihydro-2H-pyrido[1,2-a]pyrazine-1,6-dione] | 127
Cc1cn(-c2ccc3n(c2=O)CCN(CCOc2cccc4ccccc24)C3=O)cn1 [Example 3, 7-(4-methyl-1H-imidazol-1-yl)-2-[2-(1-naphthyloxy)ethyl]-3,4-dihydro-2H-pyrido[1,2-a]pyrazine-1,6-dione] | 86
Cc1cn(-c2ccc3n(c2=O)CCN(CCOc2ccc(F)c4occc24)C3=O)cn1 [Example 11, 2-{2-[(7-fluoro-1-benzofuran-4-yl)oxy]ethyl}-7-(4-methyl-1H-imidazol-1-yl)-3,4-dihydro-2H-pyrido[1,2-a]pyrazine-1,6-dione] | 536
Cc1cn(-c2ccc3n(c2=O)CCN(CCOc2ncc(Cl)c4ccc(F)cc24)C3=O)cn1 [Example 99, 2-{2-[(4-chloro-7-fluoroisoquinolin-1-yl)oxy]ethyl}-7-(4-methyl-1H-imidazol-1-yl)-3,4-dihydro-2H-pyrido[1,2-a]pyrazine-1,6-dione, trifluoroacetate salt] | 25.3
Cc1cn(-c2ccc3n(c2=O)CCN(C(C)C(C)Oc2ccccc2S(F)(F)(F)(F)F)C3=O)cn1 (stereo not drawn) [Example 123, 7-(4-methyl-1H-imidazol-1-yl)-2-{3-[2-(pentafluoro-λ^6-sulfanyl)phenoxy]butan-2-yl}-3,4-dihydro-2H-pyrido[1,2-a]pyrazine-1,6-dione] | 106
Cc1cn(-c2ccc3n(c2=O)CCN(CCOc2cccc4c2CCC4)C3=O)cn1 [Example 16, 2-[2-(2,3-dihydro-1H-inden-4-yloxy)ethyl]-7-(4-methyl-1H-imidazol-1-yl)-3,4-dihydro-2H-pyrido[1,2-a]pyrazine-1,6-dione] | 234
Cc1cn(-c2ccc3n(c2=O)CCN(CCOc2ccccc2C24CC(C2)C4)C3=O)cn1 [Example 106, 2-{2-[2-(bicyclo[1.1.1]pent-1-yl)phenoxy]ethyl}-7-(4-methyl-1H-imidazol-1-yl)-3,4-dihydro-2H-pyrido[1,2-a]pyrazine-1,6-dione] | 27.4
CCC(COc1ccc(Cl)cc1C(F)(F)F)N1CCn2c(ccc(-n3cnc(C)c3)c2=O)C1=O (stereo not drawn) [Example 100, 2-{1-[4-chloro-2-(trifluoromethyl)phenoxy]butan-2-yl}-7-(4-methyl-1H-imidazol-1-yl)-3,4-dihydro-2H-pyrido[1,2-a]pyrazine-1,6-dione, trifluoroacetate salt] | 135
